Values of other authors in patent publication US11633409B2, “Solid preparation comprising dutasteride and method for preparing same” (JW PHARMACEUTICAL CORPORATION, priority 2017, dated 2023).
Where two headings read alike, the source gives them in different places.

Tests used:
[1] = not given; remark: listed apart in the source

For `C[C@]12C=CC(=O)NC1CCC1C2CC[C@@]2(C)C1CC[C@@H]2C(=O)Nc1cc(C(F)(F)F)ccc1C(F)(F)F` (stereo partly shown) [dutasteride, Dutasteride], which solubility in water is on record?
Its solubility in water is “insoluble in water”.

And the equilibrium solubility ([1]; in Capmul MCM NF)?
The equilibrium solubility was 2.75 g/100 g.

What about the equilibrium solubility ([1]; in PEG 400) of the same compound?
The equilibrium solubility was 0.39 g/100 g.

What about the equilibrium solubility ([1]; in Transcutol) of the same compound?
The equilibrium solubility was 2.41 g/100 g.

What about the equilibrium solubility ([1]; in ethanol) of the same compound?
Its equilibrium solubility is 4.40 g/100 g.

What about the equilibrium solubility ([1]; in isopropanol) of the same compound?
Its equilibrium solubility is 3.06 g/100 g.

And the equilibrium solubility ([1]; in propylene glycol)?
The equilibrium solubility was 1.34 g/100 g.
